How the values were obtained:
NMT1 = experiment: MCF7 gene expression of NMT following insulin stimulation or rapamycin treatment (NMT1); type: cell-based; details: MCF7 cells
Excerpt: (§1) Example 9—MCF7 Gene Expression of NMT and WT1 Regulated Genes Following Insulin Stimulation
(§2) NMT1 was also shown to bind to regions of DNA containing BASP1 regulated growth genes. […] This supports our prediction that phosphorylation is the leading PI3K/AKT/mTOR mediated regulatory mechanism responsible for NMT1 modulation.

NMT2 = experiment: MCF7 gene expression of NMT following insulin stimulation or rapamycin treatment (NMT2); type: cell-based; details: MCF7 cells
Excerpt: as §1, §2

In the case of insulin, the “NMT1 expression following treatment” value (NMT1) was “little change” and the “NMT2 expression following treatment” value (NMT2) was “little change”.
